# Experimental data taken from patent US20230049952A1, “METHODS AND COMPOUNDS FOR RESTORING MUTANT P53 FUNCTION” (PMV Pharmaceuticals, Inc., priority 2020, published 2023).
# Read-outs that look alike come from different tables or passages of the source.
# Tests used:
# [1] = system: MT373 tumors; assay type: in vivo; details: 75 and 150 mg/kg BID×1 PO
# From the text: Randomization and Study Setup: Implanted animals were monitored for palpable tumors. Eighteen days post implant the animals with palpable tumors had their tumor sizes determined via digital caliper. Mice were selected and randomized into three treatment groups according to tumor size. Average tumor volume (mm^3) and body weight (g) are described in TABLE 17. Treatment began on the eighteenth day post-implant to facilitate twice daily dosing.
# Measurements and Calculation of Tumor Volume: Tumor volume was calculated using the following equation: (longest diameter×shortest diameter^2)/2. Individual tumor volumes and body weight measurements were taken at the final timepoint. The calculation for percent tumor growth inhibition (TGI) is as follows: [1−((Tt−T0/Ct−C0))]×100, where Ct is the mean tumor volume of the vehicle control group at time t, C0 is the mean tumor volume of the vehicle control group at time 0, and T is the mean tumor volume of the treatment group. Tumor regression was determined with the equation [(T0−Tt)/T0]×100 using the same definitions.
# [2] = for Plasma Conc. / Tumor Conc.: MT373 tumor-bearing mice
# [3] = molecular target: p53 Y220C in MT373 tumors (Homo sapiens, UniProt P04637, Y220C); assay: MT373 syngeneic sarcoma model: mutant, WT and total p53 ELISA in tumors; assay type: in vivo, mouse; details: for Mutant p53 Protein, Percent Reduction Relative to Vehicle Control / Total p53 Protein, Percent Reduction Relative to Vehicle Control / WT p53 Protein, Fold Change over Vehicle Control: MT373 tumors
# Procedure: Tumor Lysate Preparation: Lysis buffer was added to tumor samples and homogenized using a TissueLyser LT. Homogenized samples were spun by centrifuge for 30 minutes at 20817×g, and the supernatant transferred to a 1.5-mL tube. Protein samples were quantified, aliquoted into 96-well plates, and stored at −80° C.
# Tumor lysates were diluted in blocking buffer such that the required protein amount is added to the plate in a 100 μL volume (WT p53 7.5 μg; mutant p53 2.5 μg; Total p53 2.5 μg). […] Plates were washed, and the reaction was developed using TMB for approximately 5 minutes and quenched with 0.16 M sulfuric acid. […] A background measurement was subtracted from the treated samples' signals. The signals were normalized to the respective vehicle controls.
smiles,measurement,setting,value
"CCn1c(C#CCNc2ccccc2)cc2cc(CNC3CCN(C)CC3)ccc21 [Compound 1, 1-Anilino-3-{1-ethyl-5-[(1-methyl-4-piperidylamino)methyl]-1H-indol-2-yl}-2-propyne]",tolerability,[1],well tolerated
same,Plasma Conc.,"[2]; 75 mg/kg BIDx1 PO, 8 h",8375 ng/mL
same,Tumor Conc.,"[2]; 75 mg/kg BIDx1 PO, 8 h",30853 ng/g
same,Plasma Conc.,"[2]; 75 mg/kg BIDx1 PO, 24 h",1843 ng/mL
same,Tumor Conc.,"[2]; 75 mg/kg BIDx1 PO, 24 h",12035 ng/g
same,Plasma Conc.,"[2]; 75 mg/kg BIDx1 PO, 48 h",40 ng/mL
same,Tumor Conc.,"[2]; 75 mg/kg BIDx1 PO, 48 h",318 ng/g
same,Plasma Conc.,"[2]; 75 mg/kg BIDx1 PO, 72 h",0 ng/mL
same,Tumor Conc.,"[2]; 75 mg/kg BIDx1 PO, 72 h",97 ng/g
same,Plasma Conc.,"[2]; 75 mg/kg BIDx1 PO, 98 h",0 ng/mL
same,Tumor Conc.,"[2]; 75 mg/kg BIDx1 PO, 98 h",0 ng/g
same,plasma concentration,"[2]; 75 mg/kg BID×1 PO, 8 h (Cmax)",8375 ng/mL
same,plasma concentration,"[2]; 75 mg/kg BID×1 PO, 24 h",1843 ng/mL
same,Plasma Conc.,"[2]; 150 mg/kg BIDx1 PO, 8 h",11435 ng/mL
same,Tumor Conc.,"[2]; 150 mg/kg BIDx1 PO, 8 h",57645 ng/g
same,Plasma Conc.,"[2]; 150 mg/kg BIDx1 PO, 24 h",5986 ng/mL
same,Tumor Conc.,"[2]; 150 mg/kg BIDx1 PO, 24 h",67778 ng/g
same,Plasma Conc.,"[2]; 150 mg/kg BIDx1 PO, 48 h",268 ng/mL
same,Tumor Conc.,"[2]; 150 mg/kg BIDx1 PO, 48 h",2436 ng/g
same,Plasma Conc.,"[2]; 150 mg/kg BIDx1 PO, 72 h",7 ng/mL
same,Tumor Conc.,"[2]; 150 mg/kg BIDx1 PO, 72 h",59 ng/g
same,Plasma Conc.,"[2]; 150 mg/kg BIDx1 PO, 98 h",3 ng/mL
same,Tumor Conc.,"[2]; 150 mg/kg BIDx1 PO, 98 h",23 ng/g
same,plasma concentration,"[2]; 150 mg/kg BID×1 PO, 8 h (Cmax)",11435 ng/mL
same,plasma concentration,"[2]; 150 mg/kg BID×1 PO, 24 h",5986 ng/mL
same,"Mutant p53 Protein, Percent Reduction Relative to Vehicle Control","[3]; 75 mg/kg BIDx1 PO, 8 h",53.91%
same,"Total p53 Protein, Percent Reduction Relative to Vehicle Control","[3]; 75 mg/kg BIDx1 PO, 8 h",35.06%
same,"WT p53 Protein, Fold Change over Vehicle Control","[3]; 75 mg/kg BIDx1 PO, 8 h",1.25 fold
same,"Mutant p53 Protein, Percent Reduction Relative to Vehicle Control","[3]; 75 mg/kg BIDx1 PO, 24 h",79.50%
same,"Total p53 Protein, Percent Reduction Relative to Vehicle Control","[3]; 75 mg/kg BIDx1 PO, 24 h",72.38%
same,"WT p53 Protein, Fold Change over Vehicle Control","[3]; 75 mg/kg BIDx1 PO, 24 h",1.13 fold
same,"Mutant p53 Protein, Percent Reduction Relative to Vehicle Control","[3]; 75 mg/kg BIDx1 PO, 48 h",67.23%
same,"Total p53 Protein, Percent Reduction Relative to Vehicle Control","[3]; 75 mg/kg BIDx1 PO, 48 h",63.03%
same,"WT p53 Protein, Fold Change over Vehicle Control","[3]; 75 mg/kg BIDx1 PO, 48 h",1.02 fold
same,"Mutant p53 Protein, Percent Reduction Relative to Vehicle Control","[3]; 75 mg/kg BIDx1 PO, 72 h",16.87%
same,"Total p53 Protein, Percent Reduction Relative to Vehicle Control","[3]; 75 mg/kg BIDx1 PO, 72 h",19.65%
same,"WT p53 Protein, Fold Change over Vehicle Control","[3]; 75 mg/kg BIDx1 PO, 72 h",1.11 fold
same,"Mutant p53 Protein, Percent Reduction Relative to Vehicle Control","[3]; 75 mg/kg BIDx1 PO, 98 h",0.00%
same,"Total p53 Protein, Percent Reduction Relative to Vehicle Control","[3]; 75 mg/kg BIDx1 PO, 98 h",0.00%
same,"WT p53 Protein, Fold Change over Vehicle Control","[3]; 75 mg/kg BIDx1 PO, 98 h",1.13 fold
same,"Mutant p53 Protein, Percent Reduction Relative to Vehicle Control","[3]; 75 mg/kg BIDx1 PO, […]",45.58%
same,"Total p53 Protein, Percent Reduction Relative to Vehicle Control","[3]; 75 mg/kg BIDx1 PO, […]",44.67%
same,"WT p53 Protein, Fold Change over Vehicle Control","[3]; 75 mg/kg BIDx1 PO, […]",0.88 fold
same,increase in WT conformation p53,"[3]; 75 mg/kg BID×1 PO, 8 h",1.25 fold
same,"Mutant p53 Protein, Percent Reduction Relative to Vehicle Control","[3]; 150 mg/kg BIDx1 PO, 8 h",82.30%
same,"Total p53 Protein, Percent Reduction Relative to Vehicle Control","[3]; 150 mg/kg BIDx1 PO, 8 h",56.64%
same,"WT p53 Protein, Fold Change over Vehicle Control","[3]; 150 mg/kg BIDx1 PO, 8 h",1.45 fold
same,"Mutant p53 Protein, Percent Reduction Relative to Vehicle Control","[3]; 150 mg/kg BIDx1 PO, 24 h",93.74%
same,"Total p53 Protein, Percent Reduction Relative to Vehicle Control","[3]; 150 mg/kg BIDx1 PO, 24 h",81.75%
same,"WT p53 Protein, Fold Change over Vehicle Control","[3]; 150 mg/kg BIDx1 PO, 24 h",1.08 fold
same,"Mutant p53 Protein, Percent Reduction Relative to Vehicle Control","[3]; 150 mg/kg BIDx1 PO, 48 h",81.64%
same,"Total p53 Protein, Percent Reduction Relative to Vehicle Control","[3]; 150 mg/kg BIDx1 PO, 48 h",81.46%
same,"WT p53 Protein, Fold Change over Vehicle Control","[3]; 150 mg/kg BIDx1 PO, 48 h",0.94 fold
same,"Mutant p53 Protein, Percent Reduction Relative to Vehicle Control","[3]; 150 mg/kg BIDx1 PO, 72 h",58.64%
same,"Total p53 Protein, Percent Reduction Relative to Vehicle Control","[3]; 150 mg/kg BIDx1 PO, 72 h",60.43%
same,"WT p53 Protein, Fold Change over Vehicle Control","[3]; 150 mg/kg BIDx1 PO, 72 h",0.86 fold
same,"Mutant p53 Protein, Percent Reduction Relative to Vehicle Control","[3]; 150 mg/kg BIDx1 PO, 98 h",0.00%
same,"Total p53 Protein, Percent Reduction Relative to Vehicle Control","[3]; 150 mg/kg BIDx1 PO, 98 h",0.60%
same,"WT p53 Protein, Fold Change over Vehicle Control","[3]; 150 mg/kg BIDx1 PO, 98 h",0.95 fold
same,"Mutant p53 Protein, Percent Reduction Relative to Vehicle Control","[3]; 150 mg/kg BIDx1 PO, […]",34.14%
same,"Total p53 Protein, Percent Reduction Relative to Vehicle Control","[3]; 150 mg/kg BIDx1 PO, […]",32.40%
same,"WT p53 Protein, Fold Change over Vehicle Control","[3]; 150 mg/kg BIDx1 PO, […]",0.86 fold
same,increase in WT conformation p53,"[3]; 150 mg/kg BID×1 PO, 8 h",1.45 fold
